Values belong to the molecule of their own block, whether it stands above or below them.
How the values were obtained:
Male NMRI mice = experiment: Ro-4-1284 antagonism in mice; assay type: in vivo; details: Ro-4-1284 antagonism test in mice
Description: The test is a modification of a procedure described by Colpaert et al. (1975).^3 Male NMRI mice (22±3 g) were housed in macrolon observation cages (L×W×H: 11×12×17 cm; n=3 per cage). At the start of the experiments immediately before test compound administration, the initial body temperature of the mice was measured with a precision of 0.1° C. by inserting the thermo-sensitive probe (1.0 mm diameter) of an electric thermometer (Comark) to a constant depth of 3 cm into the esophagus until a stable reading was obtained. The right eye pupil diameter was measured with a graduated microscope and expressed in 1/24 mm units. Fifteen min after test compound administration, the mice were challenged with Ro-4-1284 (10 mg/kg, s.c.). Ro-4-1284 is a reserpine-like vesicular monoamine transport (VMAT-2) inhibitor, which rapidly depletes secretory vesicles.^3,4 Fifteen, 30 and 60 min after challenge, the mice were scored for palpebral opening (0, 1, 2, 3, 4, 5) and locomotor activity (−1, 0, 1, 2, 3). At the 60-min interval, immediately after the scoring of overt behavior, the right eye pupil diameter and the esophageal temperature were measured again. Abnormal phenomena such as intensive sniffing, chewing, rearing, hyperemia, piloerection, salivation, tremors, convulsions and death were noted (the latter phenomena were also noted when occurring before Ro-4-1284 administration). Criteria for drug-induced effects: reversal of ptosis: palpebral opening score >1 at 15, 30 or 60 min (2.7, 0.5 and 0% false positive controls, respectively; n>350); induction of prostration: score −1 for locomotion at 15, 30 or 60 min (never observed in controls); reversal of hypomotility: score >0 for locomotion at 15, 30 and 60 min (2.2, 0.8 and 0% false positive controls, respectively); reversal of miosis: pupil diameter >5 units at 60 min (0.8% false positives); potentiation of hypothermia: temperature decrease (over the 1-h time interval)>9.0° C. (1.4% false positives); reversal of hypothermia: temperature decrease <3.0° C. (1.8% false positives).
According to the standard procedure, R0-4-1284 is injected 15 min following subcutaneous or oral administration and observations start 15 min later. Doses are initially given to 3 animals. When at least 2 out of the 3 animals show activity for at least one of the observations, the compound is considered active.

p53 in A2780 cells = experiment: p53 ELISA (preservation of p53 in A2780 cells); assay type: cell-based, human; details: 16 hours treatment; for minimal effective concentration: Homo sapiens, A2780, 16 h, read-out: p53-elisa LAD (lowest dose giving at least 140% of the value for p53 present in the control)
Description: The capacity of the present compounds to preserve p53 in A2780 cells was measured with the p53 enzyme linked immunosorbent assay. The p53 assay is a “sandwich” enzyme immunoassay employing two polyclonal antibodies. A polyclonal antibody, specific for the p53 protein, has been immobilized onto the surface of the plastic wells. Any p53 present in the sample to be assayed will bind to the capture antibody. The biotinylated detector polyclonal antibody also recognizes p53 protein, and will bind to any p53, which has been retained by the capture antibody. The detector antibody, in turn, is bond by horseradish peroxidase-conjugated streptavidin. The horseradish peroxidase catalyses the conversion of the chromogenic substrate o-phenylene diamine, the intensity of which is proportional to the amount of p53 protein bond to the plate. The colored reaction product is quantified using a spectrophotometer. Quantitation is achieved by the construction of a standard curve using known concentrations of purified recombinant HIS tagged p53 protein (see example C.1.).
A2780 cells (ATCC) were cultivated in RPMI 1640 supplemented with 10% fetal calf serum (FCS), 2 mM L-glutamine and gentamycin at 37° C. in a humidified incubator with 5% CO2.
A2780 cells were seeded at 20.000 cells per well in a 96 well plate, cultured for 24 hours and treated with compound for 16 hours at 37° C. in a humidified incubator. After incubation, the cells were washed once with phosphate-buffered saline and 30 μl, per well, low salt RIPA buffer (20 mM tris, pH7.0, 0.5 mM EDTA, 1% Nonidet P40, 0.5% DOC, 0.05% SDS, 1 mM PMSF, 1 μg/ml aprotinin and 0.5 μ/ml leupeptin) was added. Plates were placed on ice for 30 minutes to complete the lysis. p53 protein was detected in de lysates by using the sandwich ELISA, described below.
High binding polystyrene EIA/RIA 96 well plates (Costar 9018) were coated with the capture antibody pAb1801 (Abcam ab28-100) at a concentration of 1 μg/ml in coating buffer (0.1 M NaHCO3 pH8.2), 50 μl per well. The antibody was allowed to adhere overnight at 4° C. Coated plates were washed once with phosphate-buffered saline (PBS)/0.05% Tween 20 and 300 μl of blocking buffer (PBS, 1% bovine serum albumins (BSA)) was added, for an incubation period of 2 hours at room temperature. Dilutions of purified recombinant HIS tagged p53 protein, ranging from 3-200 ng/ml, were made in blocking buffer and used as standards.
Plates were washed twice with PBS/0.05% Tween 20 and blocking buffer or standards were added at 80 μl/well. To the standards, 20 μl of lysis buffer was added. The samples were added to the other wells at 20 μl lysate/well. After an overnight incubation at 4° C., plates were washed twice with PBS/0.05% Tween 20. Aliquots of 100 μl secondary polyclonal antibody p53(FL-393) (Tebubio, sc-6243) at a concentration of 1 μg/ml in blocking buffer were added to each well and allowed to adhere for 2 hours at room temperature. Plates were washed three times with PBS/0.05% Tween 20. Detection antibody anti-rabbit HRP (sc-2004, Tebubio) at 0.04 μg/ml in PBS/1% BSA was added and incubated for 1 hour at room temperature. Plates were washed three times with PBS/0.05% Tween 20 and 100 μl of substrate buffer was added (substrate buffer was prepared shortly before use by adding 1 tablet of 10 mg o-phenylene diamine (OPD) from Sigma and 125 μl 3% H2O2 to 25 ml OPD buffer: 35 mM citric acid, 66 mM Na2HPO4, pH5.6). After 5 to 10 minutes, colour reaction was stopped by adding 50 μl stop buffer (1 M H2SO4) per well. The absorbance at dual wavelengths of 490/655 nm was measured using a Biorad micro plate reader and the results were then analyzed.
For each experiment, controls (containing no drug) and a blank incubation (containing no cells or drugs) were run in parallel. The blank value was subtracted from all control and sample values. For each sample, the value of p53 (in absorbance units) was expressed as the percentage of the value for p53 present in the control. […]

[1] = tested on: A2780 ovarian cancer cells; experiment: Alamar Blue cell proliferation assay, A2780; assay type: cell-based, human; details: 4-day incubation; for IC50: Homo sapiens, A2780, 96 h, read-out: A2780 cell proliferation inhibition pIC50 (converted)
Description: The human A2780 ovarian cancer cells were a kind gift from Dr. T. C. Hamilton (Fox Chase Cancer Centre, Pennsylvania, U.S.A.). The cells were cultured in RPMI 1640 medium supplemented with 2 mM L-Glutamine, 50 μg/ml gentamicin and 10% fetal calf serum.
Potassium Phosphate Buffer 0.1 M (PPB) was made as follows: 2.72 gram KH2PO4 and 13.86 gram K2HPO4 were dissolved in 500 ml milli-Q H2O, the pH was adjusted to pH 7.4 and the volume was brought to 1 liter with milli-Q H2O; the buffer was filter sterilised and stored at room temperature. Resazurin stock solution (PPB-A) was prepared fresh by dissolving 45 mg resazurin in 15 ml PBS. 30 mM potassium ferricyanide (PPB-B) was prepared by dissolving 0.987 gram potassium ferricyanide in 100 ml PPB. 30 mM potassium ferrocyanide (PPB-C) was prepared by dissolving 1.266 gram potassium ferrocyanide in 100 ml PPB.
Mixture of PPB-A, PPB-B and PPB-C was prepared by mixing equal volumes of the respective solutions. Resazurin work solution (herein termed “Alamar Blue” solution) was prepared by diluting said mixture 20×(vol/vol) in PPB and filter sterilising; the Alamar Blue solution could be kept at 4° C. for a maximum of 2 weeks.
(§1) For experiments in 384 wells plates the cells were seeded at a density of 5×10^3 cells/ml in Falcon 384-well culture plates (Life Technologies, Merelbeke, Belgium), black with clear bottom, in 45 μl culture medium. Cells were allowed to adhere to plastic for 24 hr. The tested compound was pre-diluted (1/50 in culture medium) and 5 μl pre-diluted compound was added to the wells. Following 4-day incubation, 10 μl of the Alamar Blue solution was added to each well and the cells were further incubated for 5 hrs (A2780) at 37° C. The fluorescence intensity was measured for each well with a Fluorescence plate reader (Fluorskan, Labsystems, 540 nm excitation and 590 nm emission)
(§2) The antiproliferative activity was calculated as percentage of remaining viable cells in treated versus control (untreated cells) conditions. Within an experiment, the result for each experimental condition is the mean of 3 replicate wells. When appropriate, the experiments were repeated to establish full concentration-response curves. When appropriate, IC50-values (concentration of the drug, needed to reduce cell growth to 50% of the control) were computed using probit analysis for graded data (Finney, D. J., Probit Analyses, 2nd Ed. Chapter 10, Graded Responses, Cambridge University Press, Cambridge 1962). Herein the effects of test compounds are expressed as pIC50 (the negative log value of the IC50-value (M)) (see Table 5A).

[2] = tested on: colorectal cancer cell line HCT116; experiment: Alamar Blue cell proliferation assay, HCT116; assay type: cell-based; details: for IC50: Homo sapiens, HCT-116, HCT116 cells, read-out: HCT116 cell proliferation inhibition pIC50 (converted)
Description: as §1, §2
(§3) Compounds were also tested according to the above protocol but using other cell lines: colorectal cancer cell line HCT116, non-small cell lung cancer cell line H1299, human prostate cancer cell line DU145.

[3] = tested on: non-small cell lung cancer cell line H1299; experiment: Alamar Blue cell proliferation assay, H1299; assay type: cell-based
Description: as §1, §2, §3

[4] = tested on: human prostate cancer cell line DU145; experiment: Alamar Blue cell proliferation assay, DU145; assay type: cell-based; details: Homo sapiens, DU-145, DU145 cells; read-out: DU145 cell proliferation inhibition pIC50 (converted)
Description: as §1, §2, §3

SMILES: Cc1cccc2c(CCNc3ccc(Nc4ccncc4)cc3)c[nH]c12 [reference compound]
drug induced neurological side effects (Male NMRI mice): yes

SMILES: OC1CCc2c(Nc3ccc(NCCc4c[nH]c5ccccc45)cc3)ccnc21 (centres unmarked) [drawing 152, reference compound]
drug induced neurological side effects (Male NMRI mice): yes

A2780 cell proliferation inhibition pIC50 [1]: 6.90 | HCT116 cell proliferation inhibition pIC50 ([2]; HCT116 cells): 5.61 | H1299 cell proliferation inhibition pIC50 ([3]; H1299 cells): <5
SMILES: Cc1cc(Nc2ccnc3c2CCC3O)ccc1NCCc1c[nH]c2c(CCO)cccc12 (single isomer, unassigned) [Compound 13]
p53-elisa LAD (lowest dose giving at least 140% of the value for p53 present in the control) (p53 in A2780 cells): 1.00 µM

SMILES: c1ccc2c(CCNc3ccc(Nc4ccncc4)cc3)c[nH]c2c1 [reference compound]
drug induced neurological side effects (Male NMRI mice): yes

SMILES: Cc1cc(Nc2ccncc2)ccc1NCCc1c[nH]c2ccccc12 [reference compound]
drug induced neurological side effects (Male NMRI mice): yes

IC50 [1]: 372 nM | IC50 [2]: > 10000 nM | IC50 ([3]; Homo sapiens, NCI-H1299, H1299 cells, read-out: H1299 cell proliferation inhibition pIC50 (converted)): 3980 nM | IC50 [4]: 7240 nM
SMILES: C=Cc1ccc2c(CCNc3ccc(Nc4ccnc5c4CCC5O)cc3C)c[nH]c2c1 (centres unmarked) [Compound 14]
minimal effective concentration (p53 in A2780 cells): 1 µM

SMILES: OC1CCc2c(Nc3ccc(NCCc4c[nH]c5ccccc45)cc3)ccnc21 (centres unmarked) [drawing 153, reference compound]
drug induced neurological side effects (Male NMRI mice): yes

SMILES: COC1CCc2c(Nc3ccc(NCCc4c[nH]c5c(C(C)(C)O)cccc45)cc3)ccnc21 (centres unmarked) [Compound 8]
minimal effective concentration (p53 in A2780 cells): 0.1 µM | IC50 [1]: 87.1 nM | IC50 [2]: 87.1 nM
